Patent US6872711B2, “β-substituted β-aminoethyl phosphonate derivatives” (Ilex Oncology Research S.A., priority 2000, dated 2005)

Legend:
[1] = test system: apo(a) secretion in primary cultures of Cynomolgus hepatocytes; test: Lowering the production of apo(a) in primary cultures of Cynomolgus hepatocytes (ELISA of culture medium); assay type: cell-based, Cynomolgus monkeys; details: Macaca fascicularis, Hepatocyte, tested at 20 μM, 6-24 hours incubation, one range stated for all listed compounds, read-out: lowering of apo(a) secretion (change vs control plates)
Method: The compounds of formula (I) were assayed for lowering the production of apo(a) in primary cultures of Cynomolgus hepatocytes.
Protocol: Hepatocytes were isolated from livers of male adult Cynomolgus monkeys by the two-step collagenase perfusion method according to C. Guguen-Guillouzo and A. Guillouzo “Methods for preparation of adult and fetal hepatocytes” p.1-12in “Isolated and Cultured Hepatocytes,” les editions Inserm Paris and John Libbey Eurotext London (1986).
The viability of cells was determined by Trypan blue staining. The cells were then seeded at a density of 1.5-2.10^5 viable cells per 2 cm^2 in 24 well tissue culture plates in a volume of 500 μl per well of Williams E tissue culture medium containing 10% fetal calf serum. Cells were incubated for 6-24 hours at 37° C. in a CO2 incubator (5% CO2) in the presence of 20 μM of the test compounds dissolved in ethanol. Four wells were used for each compound. Nicotinic acid and steroid hormones were used as references to validate the assay system since they are known to decrease Lp(a) in man. Control cells were incubated in the presence of ethanol only.
The amount of Lp(a) secreted in culture medium was directly assayed by ELISA using a commercially available kit. Cells were washed and lysed as described by A. L. White et al., Journal of Lipid Research vol. 34, p. 509-517, (1993) and the cellular content of Lp(a) was assayed as described above. Changes in Lp(a) concentration in culture medium are given as the percentage of value measured for the control plates.

CCOP(=O)(CC(Nc1cccnc1)c1ccc(C)c(O)c1C)OCC (stereo not drawn) [Compound 31, diethyl β-(2,4-dimethyl-3-hydroxyphenyl)-β-[N-(3-pyridyl)-amino]-ethylphosphonate]
inhibition at 20 µM [1]: 10 to 35%

CCOP(=O)(CC(Nc1cccnc1)c1cc(O)c(C)c(OC)c1)OCC (stereo not drawn) [Compound 34, diethyl β-(3-hydroxy-5-methoxy-4-methylphenyl)-β-[N-(3-pyridyl)-amino]-ethylphosphonate]
inhibition at 20 µM [1]: 10 to 35% | melting point: 146 to 147 °C

CCOP(=O)(CC(Nc1cccnc1)c1cc(OC)c(CO)c(OC)c1)OCC (stereo not drawn) [Compound 37, diethyl β-(3,5-dimethoxy-4-hydroxymethylphenyl)-β-[N-(3-pyridyl)-amino]-ethylphosphonate]
inhibition at 20 µM [1]: 10 to 35%

Cc1cc(C(CP(=O)(OC(C)C)OC(C)C)Nc2cccnc2)cc(C)c1O (stereo not drawn) [Compound 17, diisopropyl β-(3,5-dimethyl-4-hydroxyphenyl)-β-[N-(3-pyridyl)-amino]-ethylphosphonate]
inhibition at 20 µM [1]: 10 to 35% | melting point: 104 to 105 °C

CCOP(=O)(CC(Nc1cccnc1)c1cc(C)c(O)c(OC)c1)OCC (stereo not drawn) [Compound 9, diethyl β-(4-hydroxy-3-methoxy-5-methylphenyl)-β-[N-(3-pyridyl)-amino]-ethylphosphonate]
inhibition at 20 µM [1]: 10 to 35% | melting point: 156 to 158 °C

COc1cc(C(CP(=O)(OC(C)C)OC(C)C)Nc2cccnc2)cc(OC)c1O (stereo not drawn) [Compound 2, diisopropyl β-(3,5-dimethoxy-4-hydroxyphenyl)-β-[N-(3-pyridyl)-amino]-ethylphosphonate]
inhibition at 20 µM [1]: 10 to 35% | melting point: 138 to 140 °C

CCOP(=O)(CC(Nc1cccnc1)c1cc(OC)c(O)c(OC)c1)OCC (stereo not drawn) [Compound 1, diethyl β-(3,5-dimethoxy-4-hydroxyphenyl)-β-[N-(3-pyridyl)-amino]-ethylphosphonate]
inhibition at 20 µM [1]: 10 to 35% | melting point: 164 to 166 °C

COc1cc(C(CP(=O)(OC(C)C)OC(C)C)Nc2cccnc2)cc(OC)c1OC (stereo not drawn) [Compound 19, diisopropyl β-(3,4,5-trimethoxyphenyl)-β-[N-(3-pyridyl)-amino]-ethylphosphonate]
inhibition at 20 µM [1]: 10 to 35% | melting point: 96 to 98 °C

CCOP(=O)(CC(Nc1cccnc1)c1cc(C)c(O)c(C)c1)OCC (stereo not drawn) [Compound 16, diethyl β-(3,5-dimethyl-4-hydroxyphenyl)-β-[N-(3-pyridyl)-amino]-ethylphosphonate]
inhibition at 20 µM [1]: 10 to 35% | melting point: 98 to 101 °C

CCOc1cc(C(CP(=O)(OCC)OCC)Nc2cccnc2)cc(C)c1O (stereo not drawn) [Compound 20, diethyl β-(3-ethoxy-4-hydroxy-5-methylphenyl)-β-[N-(3-pyridyl)-amino]-ethylphosphonate]
inhibition at 20 µM [1]: 10 to 35% | melting point: 162 to 164 °C

CCOP(=O)(CC(Nc1cccnc1)c1cc(C(C)(C)C)c(OC)c(C(C)(C)C)c1)OCC (stereo not drawn) [Compound 30, diethyl β-(3,5-di-tert-butyl-4-methoxyphenyl)-β-[N-(3-pyridyl)-amino]-ethylphosphonate]
inhibition at 20 µM [1]: 10 to 35%

COc1cc(C(CP(=O)(OC(C)C)OC(C)C)Nc2cccnc2)cc(C)c1O (stereo not drawn) [Compound 10, diisopropyl β-(4-hydroxy-3-methoxy-5-methylphenyl)-β-[N-(3-pyridyl)-amino]-ethylphosphonate]
inhibition at 20 µM [1]: 10 to 35% | melting point: 135 to 137 °C

CCOc1cc(C(CP(=O)(OC(C)C)OC(C)C)Nc2cccnc2)cc(C)c1O (stereo not drawn) [Compound 21, diisopropyl β-(3-ethoxy-4-hydroxy-5-methylphenyl)-β-[N-(3-pyridyl)-amino]-ethylphosphonate]
inhibition at 20 µM [1]: 10 to 35% | melting point: 148 to 150 °C

CCOP(=O)(CC(Nc1cccnc1)c1cc(OC)c(OC)c(OC)c1)OCC (stereo not drawn) [Compound 18, diethyl β-(3,4,5-trimethoxyphenyl)-β-[N-(3-pyridyl)-amino]-ethylphosphonate]
inhibition at 20 µM [1]: 10 to 35% | melting point: 104 to 106 °C
